A short description of data set [1]: LC-DAD-MS analysis of ingredients in rat plasma after oral administration of QLY decoction. Particulars: 20 minutes after oral administration of QLY decoction.
Source text: Liquid chromatography simultaneously coupled with a diode array detector and a mass spectrometry detector (LC-DAD-MS) was used to analyze the pharmaceutical ingredients in rat plasma at different time points after oral administration of QLY decoction in order to determine the ingredients in QLY that could be absorbed into the body through metabolism. In this experiment, performed were comparison analyses of chromatogram and mass spectrum of QLY decoction and those of decoction of each of the constituent herbs of QLY, comparison analyses of chromatogram and mass spectrum of QLY decoction and those of QLY decoction plus blank plasma, comparison analyses of chromatogram and mass spectrum of blank plasma and those of post-administration plasma (blood sample taken at 20 min, 1 h, and 2 h respectively after oral administration of QLY decoction).
For data set [2], the system named is Human Umbilical Vein Endothelial Cells (HUVEC). The data set is described as follows: Suppression of endothelial cell proliferation, separate and combined use (equivalent curve / response surface method). The class given is cell-based. Particulars: separate use. The text has this:
Human Umbilical Vein Endothelial Cells (HUVEC) were employed in the experiment and the suppression rate on endothelial cell proliferation were monitored. Classical methods including equivalent curve method and the response surface method were used and the amount-effect curves were plotted.

“Also recorded” adds a separate entry of the source. Structures can show the parent of a compound that is named as a salt.

Turning to `CN1C[C@@H]2C[C@H](C1)c1cccc(=O)n1C2` [N-methylcytisine], in data set [1], the “detected in plasma of rats after oral administration of QLY” value (“detected in plasma of rats” below) is “small amounts”. Regarding `O=C1CCCC2C3CCCN4CCCC(CN12)C34` (stereo not drawn) [matrine, Matrine], in data set [2], the “effect on suppressing proliferation of endothelial cells (anti-angiogenesis activity)” value was “relatively strong; also recorded: remarkable effect”. In data set [1], the “detected in plasma of rats” value is recorded as “detected”. Turning to `COC1=C[C@@H]2[C@@H]3Cc4ccc(OC)c(O)c4[C@]2(CCN3C)CC1=O` [sinomenine hydrochloride], the “effect on suppressing proliferation of endothelial cells (anti-angiogenesis activity)” value in data set [2] (hydrochloride) is on record as “relatively strong; also recorded: remarkable effect”.

As to `COC1=CC2C3Cc4ccc(OC)c(O)c4[C@]2(CCN3C)CC1=O` (stereo partly drawn) [sinomenine, Sinomenine], the “detected in plasma of rats” value in data set [1] was “detected”. On the same count and under the same terms, next, `O=C1C=CC[C@@H]2[C@H]3CCCN4CCC[C@@H](CN12)[C@@H]34` [sophocarpine]: “small amounts”.
